# Assays:
# [1] = tested on: IFN-γ-induced PD-L1 expression in SK-MEL-28 cells; assay: 10-point dose response validation of IFN-γ-induced PD-L1 signal; type: cell-based, human; conditions: SK-MEL-28, IFN-γ 50 ng/ml, 48 h, FIG. 2A-E
# Experimental: FIG. 1A-D. Validation dose response curves of HSP90 inhibitors tested in the original screen. A) CNF2024; B) PF04928473; C) tanespimycin; D) HSP-990. SK-MEL-28 cells treated with IFN-γ and with the indicated HSP90 inhibitor at different concentrations. Cells were assayed for cell viability (square, % viability on left axis) and PD-L1 expression (circle, Z-score right axis) at 48 h after treatment of IFN-γ and/or HSP90 inhibitors. Quadruplicate wells were used for determination of cell viability and PD-L1 expression. Average values were plotted. […] Lysates were probed with anti PD-L1 antibody.
# FIG. 2A-E. Dose response curves of 5 additional HSP90 inhibitors. A) STA-9090, B) CUDC-305, C) MPC-3100, D) XL-888 and E) TAS-116. SK-MEL-28 cells treated with IFN-γ (50 ng/ml) and with the indicated HSP90 inhibitor at different concentrations. Cells were assayed for cell viability (square, % viability on left axis) and PD-L1 expression (circle, Z-score right axis) at 48 h after treatment of IFN-γ and/or HSP inhibitors. Quadruplicate wells were used for determination of cell viability and PD-L1 expression. Average values were plotted.
# After assessment for viability, plates were then prepared for immunostaining. Briefly, 16% paraformaldehyde (Electron Microscopy Sciences) was added to each well to a final concentration of 4%, for 10 minutes at room temperature. Following this time, the fix was aspirated and cells were washed 3 times with PBS. Cells were blocked using blocking solution (1% bovine serum albumin in PBS) for 30 minutes. After this time, the blocking reagent was aspirated and immunostaining reagent added. The immunostaining reagent consisted of a biotin conjugated-PD-L1 antibody (eBioscience) diluted in blocking buffer. Plates were sealed and kept at 4 C overnight. The following day, plates were washed 3 times with PBS followed by addition of a streptavidin-luciferase fusion protein (Invivogen) diluted in blocking buffer, for 1 h at room temperature. After this step, the plates were washed 3 times with PBS. After the final wash, PBS was aspirated and 30 uL of QUANTI-Luc™ (Invivogen) was added per well. Plates were immediately read on a plate reader (Victor 3V plate reader, 0.1s) and luciferase activity measured.
# The raw PD-L1 intensity (the luciferase readout) corresponding to drug screen plates was normalized to blank plates containing only IFN-γ-treated wells, and the resulting ratio was used for the calculation of Z-scores.
# These 4 HSP90 inhibitors were validated using the same experimental protocol employed above (using the SK-MEL-28 cells +/−IFN-γ in 384 well plates), with the only exception to the original assay design was that each drug was now tested in a 10-point dose response assay where the concentration of drug tested was 9.8-5000 nM (2 fold serial dilution). Cells were seeded and treated in quadruplicate. Viability was assessed after 48 h of treatment of four HSP 90 inhibitors and prior to harvesting the cells for testing PD-L1 signal, as described above.
# [2] = tested on: IFN-γ-induced PD-L1 expression in HCC-38 cells; assay: Western blot of IFN-γ-induced PD-L1 protein expression; type: cell-based, human; conditions: for IFN-γ-induced PD-L1 expression: IFN-γ 50 ng/ml, 48 h, Western blot
# Experimental: FIG. 3. […] Human HCC-38 cells treated with IFN-γ alone or co-treated with ruxolitinib (5000 nM) or MPC-3100 (10-5000 nM) for 48 h were analyzed by Western blot analysis to determine protein expression levels of PD-L1. Ruxolitinib served as a positive control for inhibiting JAK2. β-Actin was used as a loading control.
# p-STAT1 in HCC-38 cells = assay: Western blot of IFN-γ-induced pSTAT1; type: cell-based, human
# Experimental: (§1) FIG. 5. HCC-38 cells treated with IFN-γ alone or co-treated with ruxolitinib (5000 nM) or MPC-3100 (10-5000 nM) were analyzed by Western blot to determine protein expression levels of HSP70 and pSTAT1. β-Actin was used as a loading control.
# Since IFN-γ stimulates the expression of its target genes, such as PD-L1, which is mediated via JAK/STAT-1 signaling, the human HCC-38 cell line was used to probe the mechanism for IFN-γ-induced PD-L1 expression.
# [3] = tested on: HSP70 expression in HCC-38 cells; conditions: HCC-38 treated with MPC-3100, Western blot
# Experimental: as §1
# [4] = tested on: PD-L1 expression in U87 cells
# Experimental: (§2) FIG. 7. […] U87 cells were treated with MPC-3100 (500 and 1000 nM) for 24 h and analyzed by Western blotting with the indicated antibodies. β-Actin was used as a loading control.
# (§3) Lysates were then prepared and queried for protein expression using western blot analysis.
# pAkt in U87 cells = conditions: U87, MPC-3100 500 or 1000 nM, 24 h, Western blot
# Experimental: as §2, §3
# [5] = tested on: IDO expression in HCC-38 cells; conditions: HCC-38, MPC-3100 1000 nM or 5000 nM, 48 h, Western blot
# Experimental: Effect of HSP90 inhibitor MPC-3100 on IFN-γ-induced IDO protein levels. Human HCC-38 cells treated with IFN-γ alone or co-treated with ruxolitinib (5000 nM) or MPC-3100 (100, 1000 or 5000 nM) for 48 h. Lysates were analyzed by Western blot to determine protein expression levels of IDO.
# [6] = read-out: maximum concentration (Cmax, geometric mean) in plasma; patients dosed at the recommended phase 2 dose; cited from earlier work
# [7] = tested on: PD-L1 cell surface expression in EMT-6 cells; assay: Flow cytometry of IFN-γ-induced PD-L1 cell surface expression, EMT-6; conditions: EMT-6 (murine), IFN-γ plus MPC-3100, flow cytometry
# Experimental: (§4) A) SK-MEL-28 and HCC-38 (both human lines) were treated with IFN-γ (50 ng/ml), MPC-3100 (500 nM or 1000 nM) or the combination for 48 h. B) EMT-6 and B16-F10 (both murine cell lines) were also treated with IFN-γ, MPC-3100 or the combination for 24 h. PD-L1 cell surface signals were analyzed by flow cytometry. Experiments were performed in duplicate and at least 2 independent times.
# (§5) Two human cell lines were used (SK-MEL-28 and HCC-38 cells) and two murine cell lines were used (B16-F10, a melanoma cell line and EMT-6, a breast cancer cell line). All cells lines were treated with IFN-γ (50 ng/nl) and co-treated with MPC-3100 at the indicated concentrations for 48 h.
# [8] = tested on: PD-L1 cell surface expression in HCC-38 cells; assay: Flow cytometry of IFN-γ-induced PD-L1 cell surface expression, HCC-38; conditions: HCC-38, IFN-γ, MPC-3100 500 nM or 1000 nM, 48 h
# Experimental: as §4, §5
# [9] = tested on: PD-L1 cell surface expression in B16-F10 cells; assay: Flow cytometry of IFN-γ-induced PD-L1 cell surface expression, B16-F10; conditions: B16-F10 (murine), IFN-γ plus MPC-3100, flow cytometry
# Experimental: as §4, §5
# [10] = tested on: PD-L1 cell surface expression in SK-MEL-28 cells; assay: Flow cytometry of IFN-γ-induced PD-L1 cell surface expression, SK-MEL-28; conditions: SK-MEL-28, IFN-γ, MPC-3100 500 nM or 1000 nM, 48 h
# Experimental: as §4, §5
smiles,measurement,setting,value
C[C@H](O)C(=O)N1CCC(CCn2c(Sc3cc4c(cc3Br)OCO4)nc3c(N)ncnc32)CC1 [MPC-3100],concentration required to inhibit IFN-γ-induced PD-L1 expression compared with concentration required to affect cell proliferation,[1],far lower
same,IFN-γ-induced PD-L1 expression,"[2]; HCC-38, MPC-3100 100 nM",reduced
same,IFN-γ-induced PD-L1 expression,"[2]; HCC-38, MPC-3100 1000 nM",completely abrogated
same,"concentrations eliciting immuno-modulatory activity toward PD-L1, fold lower than Cmax at RP2D",[2]; compared with plasma Cmax ~13 μM,at least 10 fold
same,"concentrations blocking p-STAT1, fold lower than the Cmax at the recommended Phase 2 dose",p-STAT1 in HCC-38 cells; HCC-38,at least 10 fold
same,IFN-γ-induced p-STAT1,"p-STAT1 in HCC-38 cells; HCC-38, MPC-3100 10-5000 nM, Western blot",blocks
same,HSP70 expression,[3],increase
same,"concentrations inhibiting PD-L1 expression, fold lower than the therapeutic dose",[4]; U87,~10 fold
same,constitutive PD-L1 expression,"[4]; U87, MPC-3100 500 or 1000 nM, 24 h, Western blot",attenuation
same,pAkt,pAkt in U87 cells,reduction
same,IFN-γ-induced IDO expression,[5],inhibited
same,Cmax,[6],~13 µM
same,IFN-γ-induced cell surface expression of PD-L1,[7],effectively inhibited
same,IFN-γ-induced cell surface expression of PD-L1,[8],effectively inhibited
same,IFN-γ-induced cell surface expression of PD-L1,[9],effectively inhibited
same,IFN-γ-induced cell surface expression of PD-L1,[10],effectively inhibited
